Data on 30 compounds can be found in patent US20230183237A1, “COMPETITIVE AND NONCOMPETITIVE INHIBITORS OF THE MUSCARINIC ACETYLCHOLINE RECEPTOR M5” (Vanderbilt University, priority 2020, published 2023).

The first assay addresses T1, hM5 (Homo sapiens, UniProt P08912).
T1 construct: expressed in transfected cells
T1 sequence (P08912 1-532): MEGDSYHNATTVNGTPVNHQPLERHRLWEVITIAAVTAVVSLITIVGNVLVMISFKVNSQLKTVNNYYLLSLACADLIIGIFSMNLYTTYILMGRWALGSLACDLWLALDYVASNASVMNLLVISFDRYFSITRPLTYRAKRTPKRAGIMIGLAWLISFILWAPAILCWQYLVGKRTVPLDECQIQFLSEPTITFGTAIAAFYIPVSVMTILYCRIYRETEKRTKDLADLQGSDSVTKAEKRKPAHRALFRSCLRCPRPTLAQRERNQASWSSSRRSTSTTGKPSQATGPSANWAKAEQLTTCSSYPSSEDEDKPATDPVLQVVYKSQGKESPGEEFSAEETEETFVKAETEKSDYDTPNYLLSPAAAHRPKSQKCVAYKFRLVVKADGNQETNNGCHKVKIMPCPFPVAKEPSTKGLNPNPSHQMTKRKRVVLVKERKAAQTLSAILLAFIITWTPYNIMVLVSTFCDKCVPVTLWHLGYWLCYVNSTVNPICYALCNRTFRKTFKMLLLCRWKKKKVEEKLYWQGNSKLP
Nature of the assay: Calcium mobilization concentration-response (IC50 vs EC80 acetylcholine), CHO hM5. Conditions: CELL LINE hM5; calcium mobilization, EC80 acetylcholine addition; read-out: IC50. In kind it is cell-based. The method in brief:
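IC50 values derive from percent maximal acetylcholine response after an EC80 ACh addition, measured as kinetic calcium fluorescence (static ratio, max−min). Test compounds were added 140 s before agonist. Cells: stable hM5-CHO in HEPES-buffered HBSS with 2.5 mM probenecid, pH 7.4; ≥3 independent triplicate determinations.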
(In general: A change in cytosolic calcium serves as a functional read-out for many receptors and channels.)
For the compound `Cc1cc(C(F)(F)F)ncc1C1CCN(S(=O)(=O)c2cnn(C)c2C)CC1` [Compound 394, 5-(1-((1,5-dimethyl-1H-pyrazol-4-yl)sulfonyl)piperidin-4-yl)-4-methyl-2-(trifluoromethyl)pyridine], the IC50 (in general, the midpoint of a concentration-inhibition curve) was 2510 nM.

For `Cc1cc(C(F)(F)F)ncc1C1CCN(S(=O)(=O)c2cnn(C)c2Cl)CC1` [Compound 395, 5-(1-((5-chloro-1-methyl-1H-pyrazol-4-yl)sulfonyl)piperidin-4-yl)-4-methyl-2-(triflu0romethyl)pyridine], the IC50 was 1290 nM.

The assay is the same for the next values; noted with them: CELL LINE hM5; vs EC80 acetylcholine; read-out: IC50.
In the case of `Cc1cc(C(F)(F)F)ncc1C1CCN(S(=O)(=O)c2cnc(C)n2C)CC1` [Compound 396, 5(1-((1,2-dimethyl-1H-imidazol-5-yl)sulfonyl)piperidin-4-yl)-4-methyl-2-(trifluoromethyl)pyridine], the IC50 was > 10000 nM. For `Cc1ncc(S(=O)(=O)N2CCC(c3cnc(C(F)(F)F)cc3C)CC2)s1` [Compound 397, 2-methyl-5-((4-(4-methyl-6-(trifluoromethyl)pyridin-3-yl)piperidin-1-yl)sulfonyl)thiazole], the concentration for half-maximal inhibition (IC50) is > 10000 nM. Same read-out and setting: next, `Cc1cc(C(F)(F)F)ncc1C1CCN(S(=O)(=O)c2cnn3c2OCCC3)CC1` [Compound 398, 3-((4-(4-methyl-6-(trifluoromethyl)pyridin-3-yl)piperidin-1-yl)sulfonyl)-6,7-dihydro-5H-pyrazolo[5,1-b][1,3]oxazine]: 6310 nM. As for `Cc1cc(C(F)(F)F)ncc1C1CCN(S(=O)(=O)c2ccc3c(c2)CCO3)CC1` [Compound 399, 5-(1-((2,3-dihydrobenzofuran-5-yl)sulfonyl)piperidin-4-yl)-4-methyl-2-(trifluoromethyl)pyridine], the IC50 was 3840 nM. Same read-out and setting: next, `Cc1cc2ncnn2cc1C1CCN(S(=O)(=O)c2cnn(C)c2C#N)CC1` [Compound 400, 1-Methyl-4-((4-(7-methyl-[1,2,4]triazolo[1,5-a]pyridin-6-yl)piperidin-1-yl)sulfonyl)-1H-pyrazole-5-carbonitrile]: 18 nM; `Cc1cc2ncnn2cc1C1CCN(S(=O)(=O)c2cnn(C)c2CC#N)CC1` [Compound 401, 2-(1-methyl-4-((4-(7-methyl-[1,2,4]triazolo[1,5-a]pyridin-6-yl)piperidin-1-yl)sulfonyl)-1H-pyrazol-5-yl)acetonitrile]: 72 nM. Still for that read-out and setting: next, `Cn1ncc(S(=O)(=O)N2CCC(c3cn4ncnc4cc3F)CC2)c1C#N` [Compound 402, 4-((4-(7-fluoro-[1,2,4]triazolo[1,5-a]pyridin-6-yl)piperidin-1-yl)sulfonyl)-1-methyl-1H-pyrazole-5-carbonitrile]: 85 nM; `Cn1ncc(S(=O)(=O)N2CCC(c3cn4ncnc4cc3F)CC2)c1CC#N` [Compound 403, 2-(4-((4-(7-fluoro-[1,2,4]triazolo[1,5-a]pyridin-6-yl)piperidin-1-yl)sulfonyl)-1-methyl-1H-pyrazol-5-yl)acetonitrile]: 5060 nM. For the compound `Cc1cc(F)c(F)cc1C1=CCN(S(=O)(=O)c2cnn(C)c2C)CC1` [Compound 404, 4-(4,5-difluoro-2-methylphenyl)-1-((1,5-dimethyl-1H-pyrazol-4-yl)sulfonyl)-1,2,3,6-tetrahydropyridine], the half-inhibitory concentration (IC50) was 1540 nM. Same read-out and setting: next, `Cn1ncc(S(=O)(=O)N2CCC(c3cn4ncnc4cc3Cl)CC2)c1C#N` [Compound 405, 4-((4-(7-chloro-[1,2,4]triazolo[1,5-a]pyridin-6-yl)piperidin-1-yl)sulfonyl)-1-methyl-1H-pyrazole-5-carbonitrile]: 11 nM; `Cn1ncc(S(=O)(=O)N2CCC(c3cn4ncnc4cc3Cl)CC2)c1CC#N` [Compound 406, 2-(4-((4-(7-chloro-[1,2,4]triazoto[1,5-a]pyridin-6-yl)piperidin-1-yl)sulfonyl)-1-methyl-1H-pyrazol-5-yl)acetonitrile]: 58 nM.

With `CCc1cc2ncnn2cc1C1CCN(S(=O)(=O)c2cnn(C)c2C#N)CC1` [Compound 407, 4-((4-(7-ethyl-[1,2,4]triazolo[1,5-a]pyridin-6-yl)piperidin-1-yl)sulfonyl)-1-methyl-1H-pyrazole-5-carbonitrile], the IC50 turned out to be 148 nM. The same measure, in the same setting: next, `CCc1cc2ncnn2cc1C1CCN(S(=O)(=O)c2cnn(C)c2CC#N)CC1` [Compound 408, 2-(4-((4-(7-ethyl-[1,2,4]triazolo[1,5-a]pyridin-6-yl)piperidin-1-yl)sulfonyl)-1-methyl-1H-pyrazol-5-yl)acetonitrile]: 636 nM. For `Cn1ncc(S(=O)(=O)N2CCC(c3cn4ncnc4cc3C(F)(F)F)CC2)c1C#N` [Compound 409, 1-methyl-4-((4-(7-(trifluoromethyl)-[1,2,4]triazolo[1,5-a]pyridin-6-yl)piperidin-1-yl)sulfonyl)-1H-pyrazole-5-carbonitrile], the half-inhibitory concentration (IC50) stood at 59 nM.

On to `Cn1ncc(S(=O)(=O)N2CCC(c3cn4ncnc4cc3C(F)(F)F)CC2)c1CC#N` [Compound 410, 2-(1-methyl-4-((4-(7-(trifluoromethyl)-[1,2,4]triazolo[1,5-a]pyridin-6-yl)piperidin-1-yl)sulfonyl)-1H-pyrazol-5-yl)acetonitrile], for which the IC50 is 204 nM.

Regarding `COC1(c2cn3ncnc3cc2C)CCN(S(=O)(=O)c2cnn(C)c2C)CC1` [Compound 412, 6-(1-((1,5-dimethyl-1H-pyrazol-4-yl)sulfonyl)-4-methoxypiperidin-4-yl)-7-methyl-[1,2,4]triazolo[1,5-a]pyridine], the IC50 was > 10000 nM. With `COC1(c2cn3ncnc3cc2C)CCN(S(=O)(=O)c2cnn(C)c2Cl)CC1` [Compound 415, 6-(1-((5-chloro-1-methyl-1H-pyrazol-4-yl)sulfonyl)-4-methoxypiperidin-4-yl)-7-methyl-[1,2,4]triazolo[1,5-a]pyridine], the half-maximal inhibitory concentration (IC50) is > 10000 nM. The same measure, in the same setting: to `COC1(c2cn3ncnc3cc2C)CCN(S(=O)(=O)c2cnn3c2OCCC3)CC1` [Compound 416, 3-((4-methoxy-4-(7-methyl-[1,2,4]triazolo[1,5-a]pyridin-6-yl)piperidin-1-yl)sulfonyl)-6,7-dihydro-5H-pyrazolo[5,1-b][1,3]oxazine] belongs > 10000 nM. The same measure, in the same setting: next, `Cc1cc2ncccc2cc1C1CCN(S(=O)(=O)c2cnn(C)c2Cl)CC1` [Compound 417, 6-(1-((5-chloro-1-methyl-1H-pyrazol-4-yl)sulfonyl)piperidin-4-yl)-7-methylquinoline]: 34 nM; `Cc1cc2ncccc2cc1C1CCN(S(=O)(=O)c2cnn(C)c2C)CC1` [Compound 418, 6(1-((1,5-dimethyl-1H-pyrazol-4-yl)sulfonyl)piperidin-4-yl)-7-methylquinoline]: 32 nM. With `Cc1cc2ncnn2cc1C1(F)CCN(S(=O)(=O)c2cnn(C)c2Cl)CC1` [Compound 419, 6-(1-((5-chloro-1-methyl-1H-pyrazol-4-yl)sulfonyl)-4-fluoropiperidin-4-yl)-7-methyl-[1,2,4]triazolo[1,5-a]pyridine], the IC50 is 36 nM. Regarding `Cc1cc2ncnn2cc1C1(F)CCN(S(=O)(=O)c2cnn3c2CCC3)CC1` [Compound 420, 6-(1-((5,6-dihydro-4H-pyrrolo[1,2-b]pyrazol-3-yl)sulfonyl)-4-fluoropiperidin-4-yl)-7-methyl-[1,2,4]triazolo[1,5-a]pyridine], the half-inhibitory concentration (IC50) came to 39 nM.

As for `Cc1cc2ncnn2cc1C1(F)CCN(S(=O)(=O)c2cnn3c2OCCC3)CC1` [Compound 421, 3-((4-fluoro-4-(7-methyl-[1,2,4]triazolo[1,5-a]pyridin-6-yl)piperidin-1-yl)sulfonyl)-6,7-dihydro-5H-pyrazolo[5,1-b][1,3]oxazine], the IC50 turned out to be 69 nM. As to `Cc1cc2ncnn2cc1C1(F)CCN(S(=O)(=O)c2cnn(C)c2C(F)F)CC1` [Compound 422, 6-(1-((5-(difluoromethyl)-1-methyl-1H-pyrazol-4-yl)sulfonyl)-4-fluoropiperidin-4-yl)-7-methyl-[1,2,4]triazolo[1,5-a]pyridine], the concentration for half-maximal inhibition (IC50) is 86 nM.

Regarding `Cc1cc2ncnn2cc1C1(F)CCN(S(=O)(=O)c2cnn(C)c2C(F)(F)F)CC1` [Compound 423, 6-(4-fluoro-1-((1-methyl-5-(trifluoromethyl)-1H-pyrazol-4-yl)sulfonyl)piperidin-4-yl)-7-methyl-[1,2,4]triazolo[1,5-a]pyridine], the concentration for half-maximal inhibition (IC50) was 912 nM. On to `Cc1cc2nccnc2cc1C1CCN(S(=O)(=O)c2cnn(C)c2Cl)CC1` [Compound 424, 6-(1-((5-chloro-1-methyl-1H-pyrazol-4-yl)sulfonyl)piperidin-4-yl)-7-methylquinoxaline], for which the concentration for half-maximal inhibition (IC50) worked out at 55 nM. For `Cc1cc2nccnc2cc1C1CCN(S(=O)(=O)c2cnn(C)c2C)CC1` [Compound 425, 6-(1-((1,5-dimethyl-1H-pyrazol-4-yl)sulfonyl)piperidin-4-yl)-7-methylquinoxaline], the IC50 came out at 72 nM. Still for that read-out and setting: to `Cc1cc2nccnc2cc1C1CCN(S(=O)(=O)c2cnn3c2OCCC3)CC1` [Compound 426, 3-((4-(7-methylquinoxalin-6-yl)piperidin-1-yl)sulfonyl)-6,7-dihydro-5H-pyrazolo[5,1-b][1,3]oxazine] belongs 26 nM.
